{
  "source": "patent US10561704B2",
  "about": "“Compositions and methods for treating neuropsychiatric disorders using an endothelin-B receptor agonist” (MIDWESTERN UNIVERSITY, priority 2013, dated 2020)",
  "key": {"[1]": {"system": "middle cerebral artery occluded rats", "experiment": "Angiogenesis and neurogenesis markers (ETB, NeuN, BrdU, VEGF, NGF) following cerebral ischemia", "type": "in vivo", "protocol": "FIG. 16: Effect of ETB receptor agonist, IRL-1620 (three doses of 5 μg/kg, i.v., at 2, 4 and 6 h post ischemia), and antagonist, BQ788 (1 mg/kg, i.v.), on neuronal nuclei (NeuN) post middle cerebral artery occlusion. (A) Representative image of the cortex of an IRL-1620-treated animal 1 week following MCAO, stained for the ETB receptor (green) and NeuN (red). Scale bar=100 μm. (B) Representative image of the striatum of an IRL-1620-treated animal 1 week following MCAO, stained for the ETB receptor (green) and NeuN (red). Scale bar=10 μm. (C) Number of neuronal nuclei per 100 μm^2 in the cortex, striatum, and subventricular zone of middle cerebral artery occluded rats at 24 h after infarct. *P<0.05 vs. sham. ^#P<0.01 vs. MCAO+vehicle. ^@P<0.0001 vs. MCAO+IRL-1620. (D) Number of neuronal nuclei per 100 μm^2 in the cortex, striatum, and subventricular zone of middle cerebral artery occluded rats at 1 week after infarct. Values are expressed as mean±SEM (n=5/group). *P<0.0001 vs. sham. ^#P<0.0001 vs. MCAO+vehicle. ^@P<0.0001 vs. MCAO+IRL-1620.\nFIG. 17: Effect of ETB receptor agonist, IRL-1620 (3 doses of 5 μg/kg, i.v., at 2, 4 and 6 hours post ischemia), and antagonist, BQ788 (1 mg/kg, i.v.), on proliferating cells post middle cerebral artery occlusion. Representative image of the cortex of an IRL-1620-treated animal 1 week following MCAO depicting a cerebral blood vessel, stained for the ETB receptor (green) and BrdU (red). Scale bar=100 μm. […] Values are expressed as mean±SEM (n=5/group). *P<0.01 vs. sham. #P<0.0001 vs. MCAO+vehicle. @P<0.0001 vs. MCAO+IRL-1620.\nFIG. 19: Effect of ETB receptor agonist, IRL-1620 (3 doses of 5 μg/kg, i.v., at 2, 4 and 6 hours post ischemia), and antagonist, BQ788 (1 mg/kg, i.v.), on vascular endothelial growth factor (VEGF) post middle cerebral artery occlusion. […] Values are expressed as mean±SEM (n=5/group). *P<0.01 vs. sham. #P<0.01 vs. MCAO+vehicle. @P<0.05 vs. MCAO+IRL-1620.\nFIG. 21: Effect of ETB receptor agonist, IRL-1620 (3 doses of 5 μg/kg, i.v., at 2, 4 and 6 hours post ischemia), and antagonist, BQ788 (1 mg/kg, i.v.), on nerve growth factor (NGF) post middle cerebral artery occlusion. A. Representative image of the cortex of an IRL-1620-treated animal 1 week following MCAO, stained for the ETB receptor (green) and NGF (red). Scale bar=10 μm. B. Number of NGF+cells per 100 μm^2 in the cortex, striatum, and subventricular zone of middle cerebral artery occluded rats at 1 week after infarct. Values are expressed as mean±SEM (n=5/group). #P<0.0001 vs. MCAO+vehicle. @P<0.0001 vs. MCAO+IRL-1620.\nEffect of IRL-1620 on angiogenesis and neurogenesis following cerebral ischemia in rats: Angiogenesis and neurogenesis are the driving forces for the neurovascular remodeling that is essential post-stroke to restore normal brain function (Hawkins and Davis, 2005). VEGF is an endogenous protein known for its ability to promote angiogenesis and enhance vascular permeability. Under hypoxic conditions such as cerebral ischemia, VEGF expression is induced in neurons, astrocytes and endothelial cells via hypoxia-inducible factor-1 (HIF-1) (Breier and Risau, 1996). Once expressed, VEGF initiates both direct and indirect neuroprotective actions, inhibiting apoptosis, stimulating neurogenesis and angiogenesis, increasing glucose uptake and activating antioxidants (Gora-Kupilas and Josko, 2005). It has been shown that intracerebroventricular (i.c.v.) administration of an ETB receptor agonist in normal rats stimulates production of VEGF and activates VEGF receptors in the brain, while, in cultured astrocytes, this agonist increases VEGF-A mRNA as well as BrdU incorporation (Koyama et al., 2012; Koyama et al., 2011). ETB receptor agonist, IRL-1620, has been shown in our previous studies, to provide significant neuroprotection at both 24 hours and 1 week following permanent cerebral ischemia. […]"}, "postnatal rat brain": {"system": "postnatal rat brain", "experiment": "Immunoblotting of VEGF, NGF and ETB receptors in the postnatal rat brain after IRL-1620", "type": "in vivo, Sprague-Dawley rats", "text": "After 21 days of gestation, 70 male and 65 female pups were born to 10 pregnant female rats. 30 male pups were randomly selected for Study I, and divided into 4 groups as follows: Group 1=male pups euthanized on postnatal day 1 (N=10); Group 2=male pups euthanized on postnatal day 7 (N=10); Group 3=male pups euthanized on postnatal day 14 (N=5); Group 4=male pups euthanized on postnatal day 28 (N=5). An additional 20 male pups were randomly selected for Study II, and divided into 2 groups: Control (N=10) and IRL-1620-treated (N=10). Pups in Study II received 3 doses of either isotonic saline (1 ml/kg) or ETB receptor agonist IRL-1620 (5 μg/kg; American Peptide Co, Inc., Sunnyvale, Calif.) on postnatal day 21. The doses were given intravenously at 2 hour intervals. All pups were weighed and evaluated for developmental and behavioral characteristics at postnatal day 1, 7, 14 and 28. Developmental and behavioral characteristics included active vs. sluggish behavior, healthy vs. shedding fur, licking, grooming, aggressive behavior, defecation, urination and wet dog shakes.\nProtein levels of VEGF, NGF and ETB receptors in the postnatal rat brain of animals in Study II were estimated using immunoblotting technique. Animals were decapitated and the brains were removed on postnatal day 28, which is 7 days post administration of either saline or ETB receptor agonist, IRL-1620. The tissue was homogenized in 10× (w/v) RIPA lysis buffer, and protein concentration was determined according to the Lowry method, using bovine serum albumin as standard (Lowry et al., 1951). Protein (60 μg) was denatured in Laemmli sample buffer and resolved in 10% SDS-PAGE, and then transferred onto nitrocellulose membrane. […] Protein expression was analyzed using Image J (NIH) software."}, "[2]": {"details": "IRL-1620 on postnatal day 21, brain at day 28, vs control"}},
  "note": "*1 amine or outer side, *2 acyl side, *3 side chain or, on linkers, in order; H or OH if unused. Where no end group is shown, it is not given here. Suc = O=C(CCC(=O)[*:2])[*:1]",
  "data": [
    {"compound": "CCCC[C@@H](NC(=O)[C@@H](Cc1cn(C(=O)OC)c2ccccc12)NC(=O)[C@H](CC(C)(C)C)NC(=O)N1[C@H](C)CCC[C@@H]1C)C(=O)O", "note": "[BQ788, reference compound]", "values": [
      {"measurement": "Effects of IRL-1620 treatment (neurovascular remodeling)", "setting": "[1]; pretreatment with BQ-788", "result": "blocked"}
    ]},
    {"compound": "Suc-Asp-Glu-Glu-Ala-Val-Tyr-Phe-Ala-His-Leu-Asp-Ile-Ile-Trp (Suc-DEEAVYFAHLDIIW) [IRL-1620]", "values": [
      {"measurement": "Protein expression of ETB receptors (immunoblotting)", "setting": "postnatal rat brain; IRL-1620 5 μg/kg IV x3 on postnatal day 21, brain at day 28, vs control", "result": "increased"},
      {"measurement": "Overall VEGF expression (immunoblotting)", "setting": "postnatal rat brain; [2]", "result": "significantly enhanced"},
      {"measurement": "Overall expression of NGF (immunoblotting)", "setting": "postnatal rat brain; [2]", "result": "comparable"},
      {"measurement": "Number of proliferating cells in the infarcted brain", "setting": "[1]; 1 week after MCAO", "result": "increased number"},
      {"measurement": "VEGF-positive vessels/30 μm brain slice", "setting": "[1]; 1 week following MCAO", "result": "11.33±2.13"},
      {"measurement": "ETB receptor expression in cortex, striatum and SVZ", "setting": "[1]; 24 hours post occlusion", "result": "increased"},
      {"measurement": "Neuronal numbers in cortex, striatum and SVZ", "setting": "[1]; 24 hours post occlusion", "result": "preserved"},
      {"measurement": "Number of blood vessels labeled with VEGF", "setting": "[1]; 24 hours post occlusion, vs vehicle treatment", "result": "enhanced"},
      {"measurement": "NGF-positive cells per 100 μm^2", "setting": "[1]; SVZ, 1 week after MCAO", "result": "3.05±0.38", "unit": "per 100 μm^2"},
      {"measurement": "NGF-positive cells per 100 μm^2", "setting": "[1]; cortex, 1 week after MCAO", "result": "2.29±0.31", "unit": "per 100 μm^2"},
      {"measurement": "NGF-positive cells per 100 μm^2", "setting": "[1]; striatum, 1 week after MCAO", "result": "2.08±0.26", "unit": "per 100 μm^2"}
    ]}
  ]
}
